Reference: patent US9090600B2, “Fungicidal 4-substituted-3-{phenyl[(heterocyclylmethoxy)imino]methyl}-1,2,4-oxadizol-5(4H)-one derivatives” (BAYER INTELLECTUAL PROPERTY GMBH, priority 2011, dated 2015)
Marks after values point to notes of the source that are not given here.

What was measured:
[1] = test system: Phytophthora infestans; format: in vivo; conditions: tomato plants, spray, 500 ppm, grading 5 days after contamination
[2] = pH 2.7

SMILES	Eff. % [1]	LogP [2]
CCCCOC(C)C(=O)Nc1cccc(CO/N=C(/c2ccccc2)c2noc(=O)n2C)n1 (stereo not drawn) [Example 93]	99%	4.3 [a]
CCCCCOC(=O)Nc1cccc(CO/N=C(/c2ccc(F)cc2)c2noc(=O)n2C)n1 [Example 161]	92%	4.51 [a]
Cn1c(/C(=N\OCc2cccc(NC(=O)C3CC4C=CC3C4)n2)c2ccccc2)noc1=O (stereo not drawn) [Example 323]	100%	3.68 [a]
Cn1c(C(=NOCc2csc(NC(=O)c3ccccc3)n2)c2ccccc2)noc1=O [Example 257]	100%	3.44 [a]
Cn1c(/C(=N\OCc2cccc(NC(=O)COc3ccccc3)n2)c2ccccc2)noc1=O [Example 313]	100%	3.73 [a]
CCCCCOC(=O)Nc1cccc(CO/N=C(/c2ccccc2)c2noc(=O)n2CC)n1 [Example 300]	100%	4.72 [a]
CC(C)COC(=O)Nc1nc(CO/N=C(/c2ccccc2)c2noc(=O)n2C)cs1 [Example 286]	97%	3.71 [a]
CCCCCCCCC(=O)Nc1cccc(CO/N=C(/c2ccccc2)c2noc(=O)n2C)n1 [Example 98]	99%	5.11 [a]
Cn1c(/C(=N\OCc2cccc(NC(=O)CCc3ccc(Cl)cc3)n2)c2ccccc2)noc1=O [Example 346]	97%	4.17 [a]
Cc1ccc(OCC(=O)Nc2nc(CO/N=C(/c3ccccc3)c3noc(=O)n3C)cs2)cc1 [Example 229]	100%	3.8 [a]
Cc1cccc(/C(=N/OCc2cccc(NC(=O)OC(C)(C)C)n2)c2noc(=O)n2C)c1 [Example 142]	100%	4.34 [a]
Cn1c(/C(=N\OCc2cccc(NC(=O)Oc3ccccc3)n2)c2ccccc2)noc1=O [Example 138]	97%	3.73 [a]
COc1cccc(/C(=N/OCc2cccc(NC(=O)OC3CCCCC3)n2)c2noc(=O)n2C)c1 [Example 112]	73%	4.49 [a]
CCCC(C)COC(=O)Nc1cccc(CO/N=C(/c2ccccc2)c2noc(=O)n2C)n1 (stereo not drawn) [Example 337]	99%	4.83 [a]
Cn1c(/C(=N\OCc2cccc(NC(=O)C(C)(C)C)n2)c2cccc(F)c2)noc1=O [Example 139]	100%	3.61 [a]
Cc1cccc(/C(=N/OCc2cccc(NC(=O)C(C)(C)C)n2)c2noc(=O)n2C)c1 [Example 387]	100%	3.85 [a]
Cc1ccccc1OC(C)C(=O)Nc1nc(CO/N=C(/c2ccccc2)c2noc(=O)n2C)cs1 (stereo not drawn) [Example 82]	99%	4.12 [a]
CC(CC1CCCCC1)Nc1cccc(CO/N=C(/c2ccccc2)c2noc(=O)n2C)n1 (stereo not drawn) [Example 236]	100%	5.14 [a]
COC(=O)C(C)OC(=O)Nc1cccc(CO/N=C(/c2ccccc2)c2noc(=O)n2C)n1 (stereo not drawn) [Example 119]	97%	3.17 [a]
COc1ccccc1CCC(=O)Nc1cccc(CO/N=C(/c2ccccc2)c2noc(=O)n2C)n1 [Example 184]	99%	3.87 [a]
Cn1c(/C(=N\OCc2cccc(NC(=O)CC(F)(F)F)n2)c2ccccc2)noc1=O [Example 237]	97%	3.19 [a]
Cn1c(C(=NOCc2cccc(NC(=O)CCCC3CCCCC3)n2)c2ccccc2)noc1=O [Example 267]	97%	5.14 [a]

SMILES	Eff. % [1]	LogP [2]
Cn1c(/C(=N\OCc2cccc(NC(=O)C3(c4ccccc4)CC3)n2)c2ccccc2)noc1=O [Example 165]	70%	4.43 [a]
Cn1c(/C(=N\OCc2csc(NC(=O)COc3ccc(Cl)cc3Cl)n2)c2ccccc2)noc1=O [Example 123]	98%	4.23 [a]
CCCCC(=O)Nc1cccc(CO/N=C(/c2ccccc2)c2noc(=O)n2CC)n1 [Example 176]	100%	3.76 [a]
Cn1c(/C(=N\OCc2csc(NC(=O)c3ccccc3Br)n2)c2ccccc2)noc1=O [Example 81]	78%	3.51 [a]
Cn1c(/C(=N\OCc2cccc(NC(=O)c3ccc(Br)cc3)n2)c2ccccc2)noc1=O [Example 187]	80%	4.14 [a]
Cn1c(/C(=N\OCc2cccc(NC(=O)c3cc(F)cc(F)c3)n2)c2ccccc2)noc1=O [Example 202]	98%	3.92 [a]
CSCCC(=O)Nc1cccc(CO/N=C(/c2ccccc2)c2noc(=O)n2C)n1 [Example 188]	99%	3.09 [a]
CCOCCC(=O)Nc1cccc(CO/N=C(/c2ccccc2)c2noc(=O)n2C)n1 [Example 48]	98%	2.96 [a]
CC(C)CCOC(=O)Nc1nc(CO/N=C(/c2ccccc2)c2noc(=O)n2C)cs1 [Example 47]	100%	4.06 [a]
CCCCOC(=O)Nc1cccc(CO/N=C(/c2cccc(OC)c2)c2noc(=O)n2C)n1 [Example 361]	90%	4.06 [a]
Cn1c(/C(=N\OCc2cccc(NC(=O)OCCc3ccccc3F)n2)c2ccccc2)noc1=O [Example 186]	83%	4.21 [a]
CCC(C(=O)Nc1cccc(CO/N=C(/c2ccccc2)c2noc(=O)n2C)n1)c1ccccc1 (racemic) [Example 386]	80%	4.23 [a]
CCC(C)COC(=O)Nc1cccc(CO/N=C(/c2ccccc2)c2noc(=O)n2C)n1 (stereo not drawn) [Example 350]	98%	4.44 [a]
CC(C)COC(=O)Nc1cccc(CO/N=C(/c2ccccc2)c2noc(=O)n2C)n1 [Example 225]	99%	4.01 [a]
C=CCC#CCCOC(=O)Nc1cccc(CO/N=C(/c2ccccc2)c2noc(=O)n2C)n1 [compound 452]		4.01 [a]
C=COC(=O)Nc1cccc(CO/N=C(/c2ccccc2)c2noc(=O)n2C)n1 [compound 482]		3.33 [a]
Cc1ccccc1OCC(=O)Nc1cccc(CO/N=C(/c2ccccc2)c2noc(=O)n2C)n1 [Example 76]		4.17 [a]
CCCCOC(=S)Nc1nc(CO/N=C(/c2ccccc2)c2noc(=O)n2C)cs1 [Example 410]		4.56 [a]
Cn1c(/C(=N\OCc2cccc(NC(=O)OCCC3CC3)n2)c2ccccc2)noc1=O [compound 438]		4.01 [a]
CC(C)[C@@H]1CC[C@@H](C)C[C@H]1OC(=O)Nc1cccc(CO/N=C(/c2ccccc2)c2noc(=O)n2C)n1 [compound 462]		5.9 [a]
Cn1c(/C(=N\OCc2cccc(NC(=O)SC(C)(C)C)n2)c2ccccc2)noc1=O [Example 162]		4.39 [a]
CC(Oc1ccccc1)C(=O)Nc1nc(CO/N=C(/c2cccc(F)c2)c2noc(=O)n2C)cs1 (stereo not drawn) [Example 338]		3.76 [a]

SMILES	Eff. % [1]	LogP [2]
CC(C)(C)OC(=O)Nc1cccc(CON=C(C(N)=NO)c2ccccc2)n1 (mixture of isomers) [Example V-14]		2.57 [a]
NC(=NO)C(=NOCc1cccc(N)n1)c1cccc(F)c1 (mixture of isomers) [Example V-12]		0.56 [a]
CC(C)(C)OC(=O)Nc1cccc(CON=C(C(N)=NO)c2ccc(F)cc2)n1 (mixture of isomers) [Example V-8]		2.68 [a]
COc1cccc(/C(=N/OCc2cccc(N(C(=O)OC(C)(C)C)C(=O)OC(C)(C)C)n2)c2noc(=O)n2C)c1 [Example 141]		4.44 [a]
Cc1ccc(OC(C)C(=O)Nc2cccc(CO/N=C(/c3ccccc3)c3noc(=O)n3C)n2)cc1 (stereo not drawn) [Example 287]		4.35 [a]
Cc1cc(C)c(OC(=O)Nc2cccc(CO/N=C(/c3ccccc3)c3noc(=O)n3C)n2)c(C)c1 [compound 470]		4.56 [a]
NC(=NO)C(=NOCc1cccc(N)n1)c1ccccc1 (mixture of isomers) [Example V-9]		0.39 [a]
Cn1c(/C(=N\OCc2csc(NC(=O)C3COc4ccccc4O3)n2)c2cccc(F)c2)noc1=O (stereo not drawn) [Example 234]		3.7 [a]
CCc1cccc(OC(=O)Nc2cccc(CO/N=C(/c3ccccc3)c3noc(=O)n3C)n2)c1 [compound 435]		4.34 [a]
CCCCCCCCOC(=O)Nc1cccc(CO/N=C(/c2ccccc2)c2noc(=O)n2C)n1 [compound 465]		5.65 [a]
Cn1c(C(=NOCc2cccc(NC(=O)OCCOC3CCCCC3)n2)c2ccccc2)noc1=O [compound 496]		4.31 [a]
Cn1c(/C(=N\OCc2cccc(NC(=O)OCCC(C)(C)C)n2)c2ccccc2)noc1=O [compound 423]		4.68 [a]
Cn1c(/C(=N\OCc2csc(NC(=O)COc3ccccc3)n2)c2ccccc2)noc1=O [Example 315]		3.51 [a]
COc1ccc(C(=NOCc2cccc(NC(=O)OC(C)(C)C)n2)C(N)=NO)cc1 (mixture of isomers) [Example V-13]		2.51 [a]
Cn1c(/C(=N\OCc2cccc(NC(=O)OCC3CC=CCC3)n2)c2ccccc2)noc1=O (stereo not drawn) [compound 526]		4.51 [a]
NC(=NO)C(=NOCc1csc(N)n1)c1ccccc1Cl (mixture of isomers) [Example V-10]		0.73 [a]
CC(Oc1ccccc1Cl)C(=O)Nc1cccc(CO/N=C(/c2ccccc2)c2noc(=O)n2C)n1 (stereo not drawn) [Example 231]		4.41 [a]
CN(C)CCCOC(=O)Nc1cccc(CO/N=C(/c2ccccc2)c2noc(=O)n2C)n1 [compound 472]		1.88 [a]
Cn1c(/C(=N\OCc2cccc(NC(=O)C3(c4ccc(Cl)cc4Cl)CC3)n2)c2ccccc2)noc1=O [Example 222]		4.96 [a]
Cn1c(/C(=N\OCc2csc(NC(=O)COc3cccc(Br)c3)n2)c2ccccc2)noc1=O [Example 314]		3.94 [a]
C=CCCCCOC(=O)Nc1cccc(CO/N=C(/c2ccccc2)c2noc(=O)n2C)n1 [compound 454]		4.39 [a]
Cn1c(C(=NOCc2cccc(N)n2)c2cccc(F)c2F)noc1=O [Example 508]		1.34 [a]
